Measured values reported in patent US20030207813A1, “Retroviral protease inhibitor combinations” (priority 1995, published 2003).
Read-outs that look alike come from different tables or passages of the source.

How the values were obtained:
HIV-1NL4-3 = assay: microbe, parasite or virus in culture; type: cell-based; conditions: for EC50: Table 8, read-out: Virus Isolate (EC50 nM) NL4
Excerpt: RF represents the HIV-1 strain HIV-LRF and RFR represents a mixture of resistant strains obtained by selection of RF against the compound of Example 1. […] RFR2 represents a mixture of resistant strains obtained by cloning RFR by three rounds of growth at limiting dilution. […] RFRR represents a mixture of resistant strains obtained by selection of RF against the compounds of Examples 1 and 2 and then cloning by three rounds of growth at limiting dilution. […] SF162 represents the HIV-1 strain SF-162 and SF162R represents a mixture of resistant strains obtained by selection of SF162 against the compound of Example 1. […] 89-959 represents the HIV-1 strain 89-959 and 89-959R represents a mixture of resistant strains obtained by selection of 89-959 against the compound of Example 2. […] NL4 represents the HIV-1 strain HIV-1NL4-3. NL4(G48V) represents a strain having a synthetically generated site-directed mutation in the protease from glycine to valine at amino acid position number 48. NL4(I84V) represents a strain having a synthetically generated site-directed mutation in the protease from isoleucine to valine at amino acid position number 84. NL4(R8Q,M46I) represents a strain having synthetically generated site-directed mutations in the protease from arginine to glutamine at amino acid position number 8 and methionine to isoleucine at amino acid position number 46.

NL4(P22-538) = assay: Viral isolate resistance assay per Markowitz et al., NL4(P22-538); type: cell-based, HIV-1; conditions: Human immunodeficiency virus 1; Table 9; selected against Example 10, 22 passages; read-out: Virus Isolate (EC50 nM) NL4(P22-538)
Excerpt: RF represents the HIV-1 strain HIV-LRF and RFR represents a mixture of resistant strains obtained by selection of RF against the compound of Example 1. RFR comprises a mixture of viral strains having protease genotypes of G48V (14/40 clones); G48V, V82A (18/40 clones); G48V, L90S (2/40 clones); G48V, 154T, V82A (1/40 clones); G48M (1/40 clones); G48V, Q61H (1/40 clones); V13I, G48V (1/40 clones); G48V, F53L, V82A (1/40 clones); and G48V, V82A, C95Y (1/40 clones). RFR2 represents a mixture of resistant strains obtained by cloning RFR by three rounds of growth at limiting dilution. RFR2 comprises a mixture of viral strains having protease genotypes of G48V, V82A (13/15 clones); G17E, G48V, V82A (1/15 clones); and G48V, V82A, N37D, N88D (1/15 clones). RFRR represents a mixture of resistant strains obtained by selection of RF against the compounds of Examples 1 and 2 and then cloning by three rounds of growth at limiting dilution. RFRR comprises a mixture of viral strains having protease genotypes of G48V, 154T, L63P, V82A (7/9 clones); G48V, 154T, L63P, V82A, N88S (1/9 clones); and G48V, 154T, L63P, G73M, V82A (1/9 clones). SF162 represents the HIV-1 strain SF-162 and SF162R represents a mixture of resistant strains obtained by selection of SF162 against the compound of Example 1. SF162R comprises a mixture of viral strains having protease genotypes of M461, F53L, L63P, A71V, N88D (2/3 clones); and M46I, F53L, L63P, A71V, N88D, Q92R (1/3 clones). 89-959 represents the HIV-1 strain 89-959 and 89-959R represents a mixture of resistant strains obtained by selection of 89-959 against the compound of Example 2. 89-959R comprises a mixture of viral strains having protease genotypes of N88S (4/5 clones); and D25N, T26A, D30N, D37N, R41K, G73D, R87K, N88S (1/4 clones). NL4 represents the HIV-1 strain HIV-1NL4-3. NL4(G48V) represents a strain having a synthetically generated site-directed mutation in the protease from glycine to valine at amino acid position number 48. NL4(I84V) represents a strain having a synthetically generated site-directed mutation in the protease from isoleucine to valine at amino acid position number 84. NL4(R8Q,M46I) represents a strain having synthetically generated site-directed mutations in the protease from arginine to glutamine at amino acid position number 8 and methionine to isoleucine at amino acid position number 46. NL4(P22-538) represents a mixture of resistant strains obtained by selection of HIV-1NL4-3 against the compound of Example 10 after 22 passages comprising protease genotypes M46I, L63P, A71V, V82F, I84V (4/10); M46I, L63P, V82F, I84V (3/10); and M46I, A71V, V82F, I84V (3/10). NL4(P37-538) represents resistant strains obtained by selection of HIV-1NL4-3 against the compound of Example 10 after 37 passages comprising protease genotype M46I, L63P, A71V, 184A. NL4(538/524) represents resistant strains obtained by selection of NL4(P22-538) against the compound of Example 5 after 24 passages comprising protease genotype M46I, L63P, A71V, 184A. NL4(538/P7-AG) represents a mixture of resistant strains obtained by selection of NL4(P22-538) against the compound of Example 12 after 7 passages comprising protease genotypes M46I, L63P, A71V, 184A; and V321, V82I. NL4(538/P24-AG) represents resistant strains obtained by selection of NL4(P22-538) against the compound of Example 12 after 24 passages comprising protease genotype M46I, L63P, A71V, 184A. […]

NL4(R8Q,M46I) = assay: Viral isolate resistance assay per Markowitz et al., NL4(R8Q,M46I); type: cell-based, HIV-1; conditions: Human immunodeficiency virus 1, read-out: Virus Isolate (EC50 nM) NL4(R8O, M46I)
Excerpt: (§1) RF represents the HIV-1 strain HIV-LRF and RFR represents a mixture of resistant strains obtained by selection of RF against the compound of Example 1. RFR comprises a mixture of viral strains having protease genotypes of G48V (14/40 clones); G48V, V82A (18/40 clones); G48V, L90S (2/40 clones); G48V, 154T, V82A (1/40 clones); G48M (1/40 clones); G48V, Q61H (1/40 clones); V13I, G48V (1/40 clones); G48V, F53L, V82A (1/40 clones); and G48V, V82A, C95Y (1/40 clones). RFR2 represents a mixture of resistant strains obtained by cloning RFR by three rounds of growth at limiting dilution. RFR2 comprises a mixture of viral strains having protease genotypes of G48V, V82A (13/15 clones); G17E, G48V, V82A (1/15 clones); and G48V, V82A, N37D, N88D (1/15 clones). RFRR represents a mixture of resistant strains obtained by selection of RF against the compounds of Examples 1 and 2 and then cloning by three rounds of growth at limiting dilution. RFRR comprises a mixture of viral strains having protease genotypes of G48V, 154T, L63P, V82A (7/9 clones); G48V, 154T, L63P, V82A, N88S (1/9 clones); and G48V, 154T, L63P, G73M, V82A (1/9 clones). SF162 represents the HIV-1 strain SF-162 and SF162R represents a mixture of resistant strains obtained by selection of SF162 against the compound of Example 1. SF162R comprises a mixture of viral strains having protease genotypes of M461, F53L, L63P, A71V, N88D (2/3 clones); and M46I, F53L, L63P, A71V, N88D, Q92R (1/3 clones). 89-959 represents the HIV-1 strain 89-959 and 89-959R represents a mixture of resistant strains obtained by selection of 89-959 against the compound of Example 2. 89-959R comprises a mixture of viral strains having protease genotypes of N88S (4/5 clones); and D25N, T26A, D30N, D37N, R41K, G73D, R87K, N88S (1/4 clones). NL4 represents the HIV-1 strain HIV-1NL4-3. NL4(G48V) represents a strain having a synthetically generated site-directed mutation in the protease from glycine to valine at amino acid position number 48. […]

NLA(P19-003) = assay: Viral isolate resistance assay per Markowitz et al., NLA(P19-003); type: cell-based, HIV-1; conditions: Human immunodeficiency virus 1, read-out: Virus Isolate (EC50 nM) NLA(P19-003)
Excerpt: as §1

NL4(P34-003) = assay: Viral isolate resistance assay per Markowitz et al., NL4(P34-003); type: cell-based, HIV-1; conditions: Human immunodeficiency virus 1; Table 11; selected against Example 9, 34 passages
Excerpt: as §1

[1] = Human immunodeficiency virus 1, NL4

Row | SMILES | EC90 (HIV-1NL4-3; Human immunodeficiency virus 1, Table 7, EC90, NL4, read-out: Virus Isolate (EC90 nM) NL4) [nM] | EC50 (HIV-1NL4-3; [1]) [nM] | EC50 (NL4(P22-538)) [nM] | EC90 (HIV-1NL4-3; Human immunodeficiency virus 1, read-out: Virus Isolate (EC90 nM) NL4) [nM] | EC50 (NL4(R8Q,M46I)) [nM] | EC50 (NLA(P19-003)) [nM] | EC50 (NL4(P34-003)) [nM]
1 | CC(C)(C)NC(=O)[C@@H]1CC2CCCC[C@@H]2CN1C[C@@H](O)[C@H](Cc1ccccc1)NC(=O)[C@H](CC(N)=O)NC(=O)c1ccc2ccccc2n1 (stereo in doubt) [Example 6, N-tert-Butyl decahydro-2-[2(R)-hydroxy-4-phenyl-3(S)-[[N-(2-quinolylcarbonyl)-L-asparaginyl]amino]butyl]-(4aR,8aS)-isoquinoline-3(S)-carboxamide] | 30 | 30 | 150 |  |  |  | 
2 | CC(C)(C)NC(=O)[C@@H]1CN(Cc2cccnc2)CCN1C[C@@H](O)C[C@@H](Cc1ccccc1)C(=O)N[C@H]1c2ccccc2C[C@H]1O [Example 5, N-(2(R)-Hydroxy-1(S)-indanyl)-2(R)-phenylmethyl-4(S)-hydroxy-5-(1-(4-(3-pyridylmethyl)-2(S)-N′-(t-butylcarboxamido)-piperazinyl))-pentaneamide] |  | 80 | 800 | 80 | 240 | 240 | 400
